Test: Inhibition of rabbit platelet PDE5 using [3H]cGMP as substrate after 30 mins by scintillation proximity assay
Design: species or system Oryctolagus cuniculus

| SMILES | IC50 [nM] |
| --- | --- |
| CCCc1nn(C)c2c(=O)[nH]c(-c3cc(S(=O)(=O)N4CCN(C)CC4)ccc3OCC)nc12 | 3.3 |
| CCCOc1ccc(S(=O)(=O)N2CCN(C)CC2)cc1-c1nc(CC)cc(=O)[nH]1 | 51.8 |
| CCCOc1ccc(S(=O)(=O)N2CCN(C)CC2)cc1-c1nc(CC)c(I)c(=O)[nH]1 | 7.2 |

Source: ChEMBL document CHEMBL1914353, “Utilization of halogen bond in lead optimization: a case study of rational design of potent phosphodiesterase type 5 (PDE5) inhibitors” (J Med Chem, 2011)
